The NIST ThermoML archive (doi:10.1021/je800463k)
Numbers after ± are expanded uncertainties.

Assay: mn = molality of the nth substance listed, in mol/kg
Settings: 101 kPa, Liquid; for viscosity: 303.15 K; for mass density: Pycnometric method; for electrical conductivity / speed of sound: 308.15 K; for electrical conductivity: Frequency=0.001 MHz, Alternating current cell with electrodes; for speed of sound: Frequency=2 MHz

CC(=O)[O-].CC(=O)[O-].[Mg+2] [magnesium acetate] + CO
viscosity (m1 = 0.2422): 0.6232 ± 0.017 mPa·s
viscosity (m1 = 0.2453): 0.6232 ± 0.017 mPa·s
viscosity (m1 = 0.2889): 0.642 ± 0.017 mPa·s
mass density (303.25 K, m1 = 0.2422): 799.9 ± 8 kg/m3
mass density (303.45 K, m1 = 0.0339): 786.42 ± 1.3 kg/m3
mass density (303.5 K, m1 = 0.014): 784.74 ± 0.81 kg/m3
mass density (303.65 K, m1 = 0.2192): 797.61 ± 7.3 kg/m3
mass density (303.75 K, m1 = 0.1112): 791.73 ± 3.4 kg/m3
mass density (303.95 K, m1 = 0.053): 786.54 ± 0.98 kg/m3
mass density (304.35 K, m1 = 0.3042): 801.29 ± 5.3 kg/m3
mass density (304.6 K, m1 = 0.1402): 792.72 ± 4.6 kg/m3
mass density (304.6 K, m1 = 0.1798): 795.47 ± 4.2 kg/m3
mass density (304.6 K, m1 = 0.2003): 795.91 ± 3.9 kg/m3
mass density (304.65 K, m1 = 0.0646): 787.5 ± 2 kg/m3
mass density (304.75 K, m1 = 0.0855): 787.76 ± 2.7 kg/m3
mass density (304.85 K, m1 = 0.2668): 799.19 ± 4.6 kg/m3
mass density (304.9 K, m1 = 0.0093): 782.5 ± 1 kg/m3
mass density (304.95 K, m1 = 0.0059): 781.79 ± 0.87 kg/m3
mass density (305.3 K, m1 = 0.014): 783.09 ± 0.94 kg/m3
mass density (305.5 K, m1 = 0.1455): 792.24 ± 3.8 kg/m3
mass density (305.65 K, m1 = 0.053): 784.95 ± 1.8 kg/m3
mass density (305.8 K, m1 = 0.2422): 797.4 ± 4.7 kg/m3
mass density (305.95 K, m1 = 0.0339): 783.96 ± 0.88 kg/m3
mass density (306.1 K, m1 = 0.3042): 799.61 ± 5.2 kg/m3
mass density (306.15 K, m1 = 0.2192): 795.21 ± 3.2 kg/m3
mass density (306.25 K, m1 = 0.1402): 791.07 ± 3.9 kg/m3
mass density (306.3 K, m1 = 0.1112): 789.29 ± 2.8 kg/m3
mass density (306.35 K, m1 = 0.2003): 794.29 ± 2.5 kg/m3
mass density (306.4 K, m1 = 0.1798): 793.8 ± 4.3 kg/m3
mass density (306.55 K, m1 = 0.0093): 780.91 ± 1 kg/m3
mass density (306.65 K, m1 = 0.0059): 780.15 ± 0.89 kg/m3
mass density (306.95 K, m1 = 0.2668): 797.14 ± 3.5 kg/m3
mass density (307.1 K, m1 = 0.0646): 785.07 ± 1.6 kg/m3
mass density (307.3 K, m1 = 0.053): 783.25 ± 1.6 kg/m3
mass density (307.3 K, m1 = 0.1455): 790.54 ± 4.9 kg/m3
mass density (307.35 K, m1 = 0.0855): 785.26 ± 2.7 kg/m3
mass density (307.5 K, m1 = 0.2422): 795.76 ± 8.2 kg/m3
mass density (307.7 K, m1 = 0.0339): 782.34 ± 1.3 kg/m3
mass density (307.7 K, m1 = 0.3042): 797.95 ± 5.3 kg/m3
mass density (307.75 K, m1 = 0.014): 780.67 ± 0.85 kg/m3
mass density (307.8 K, m1 = 0.2192): 793.51 ± 7.4 kg/m3
mass density (307.95 K, m1 = 0.1402): 789.51 ± 3.7 kg/m3
electrical conductivity (m1 = 0.0059): 0.0369 ± 0.0001 S/m
electrical conductivity (m1 = 0.0093): 0.0592 ± 0.0001 S/m
electrical conductivity (m1 = 0.018): 0.0674 ± 0.0001 S/m
electrical conductivity (m1 = 0.0339): 0.0879 ± 0.0001 S/m
electrical conductivity (m1 = 0.053): 0.103 ± 0.0001 S/m
electrical conductivity (m1 = 0.0646): 0.112 ± 0.0001 S/m
electrical conductivity (m1 = 0.0855): 0.1232 ± 0.0001 S/m
electrical conductivity (m1 = 0.1024): 0.1326 ± 0.0001 S/m
electrical conductivity (m1 = 0.1402): 0.151 ± 0.0001 S/m
electrical conductivity (m1 = 0.1455): 0.1557 ± 0.0001 S/m
electrical conductivity (m1 = 0.1837): 0.1631 ± 0.0001 S/m
electrical conductivity (m1 = 0.2422): 0.1782 ± 0.0001 S/m
electrical conductivity (m1 = 0.2889): 0.1835 ± 0.0001 S/m
speed of sound (m1 = 0.0059): 1070.1 ± 6.3 m/s
speed of sound (m1 = 0.0093): 1068.7 ± 6.3 m/s
speed of sound (m1 = 0.018): 1071.5 ± 6.3 m/s
speed of sound (m1 = 0.053): 1075.1 ± 6.3 m/s
